Read-outs that look alike come from different tables or passages of the source.
Assays:
[1] = biological target: Kir1.1 (ROMK1) (Homo sapiens (Human), UniProt P48048); test: Electrophysiology Assay (whole cell voltage clamp, IonWorks Quattro); assay type: cell-based; conditions: block during voltage step to 0 mV
Experimental: Chinese hamster ovary cells stably expressing Kir1.1 channels were maintained in T-75 flasks in cell culture media in a humidified 10% CO2 incubator at 37° C. Prior to an experiment, Kir1.1 expression was induced by overnight incubation with 1 mM sodium butyrate. […] After centrifugation, the cell pellet was resuspended in approximately 4.0 mL of bath solution and placed in the IonWorks instrument. The intracellular solution consisted of (in mM): 80 K gluconate, 40 KCl, 20 KF, 3.2 MgCl2, 3 EGTA, 5 Hepes, pH 7.4. Electrical access to the cytoplasm was achieved by perforation in 0.13 mg/mL amphotericin B for 4 min. […] Voltage protocols and current recordings were performed using the IonWorks HT software/hardware system. Currents were sampled at 1 kHz. No correction for liquid junction potentials was used. The test pulse, consisting of a 100 ms step to 0 mV from a holding potential of −70 mV, followed by a 100 ms voltage ramp from −70 mV to +70 mV, was applied before and after a 6 min compound incubation period. Test compounds were prepared by diluting DMSO stock solutions into the bath solution at 3× the final concentration and placed in the instrument in 96-well polypropylene plates. Current amplitudes were measured using the IonWorks software.

[2] = biological target: hROMK (hKir1.1) (Homo sapiens (Human), UniProt P48048); test: Thallium Flux Assay (ROMK channel functional thallium flux, FLIPR-Tetra); assay type: cell-based; conditions: read-out: Thallium Flux IC50
Sequence of hROMK (hKir1.1) (P48048 whole entry): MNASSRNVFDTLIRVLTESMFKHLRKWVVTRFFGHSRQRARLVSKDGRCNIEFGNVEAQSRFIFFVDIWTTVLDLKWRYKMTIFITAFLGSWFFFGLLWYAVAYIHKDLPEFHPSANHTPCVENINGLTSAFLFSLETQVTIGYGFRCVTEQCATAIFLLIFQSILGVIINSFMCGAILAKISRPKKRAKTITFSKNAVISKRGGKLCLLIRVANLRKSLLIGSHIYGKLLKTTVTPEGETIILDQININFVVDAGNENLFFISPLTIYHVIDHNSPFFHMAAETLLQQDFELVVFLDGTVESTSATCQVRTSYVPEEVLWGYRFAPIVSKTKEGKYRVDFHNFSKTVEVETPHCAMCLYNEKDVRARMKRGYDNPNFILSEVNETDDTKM
Experimental: Cell Culture Conditions—HEK293 cells stably expressing hROMK (hKir1.1) were grown at 37° C. in a 10% CO2 humidified incubator in complete growth media: Dulbecco's Modified Eagle Medium supplemented with non-essential amino acids, Penicillin/Streptomycin/Glutamine, G418 and FBS. At >80% confluency, aspirate the media from the flask and rinse with 10 mL Calcium/Magnesium-free PBS. […] To dislodge the cell, gently bang the side of the flask with your hand. Triturate the cells completely and then transfer the cells to 25 mL complete media. Centrifuge at 1,500 rpm for 6 min followed by resuspension in complete growth media and determine cell concentration. […] Under ideal growth conditions and appropriate tissue culture practices, this cell line is stable for 40-45 passages.
FluxOR Kit Components (Invitrogen F10017) • FluxOR™ Reagent (Component A) • FluxOR™ Assay Buffer (Component B)—10× Concentrate • PowerLoad™ Concentrate (Component C)—100× Concentrate • Probenecid (Component D)—Lyophilized sample is kept at −20° C. Water soluble, 100× after solubilization in 1 mL water. […] Store at 4° C. • Thallium sulfate (Tl2SO4) Concentrate (Component G)—50 mM in water. Store at 4° C. • DMSO (dimethyl sulfoxide, Component H)—1 mL (100%)
Can be stored at room temperature • Stimulant Buffer (prepared at 5× final concentration in 1× FluxOR™ Chloride-Free Buffer): 7.5 mM Thallium sulfate and 0.75 mM Potassium sulfate (to give a final assay concentration of 3 mM Thallium/0.3 mM Potassium). Store at 4° C. when not in use. If kept sterile, this solution is good for months.
Assay Protocol—The ROMK channel functional thallium flux assay is performed in 384 wells, using the FLIPR-Tetra instrument. HEK-hKir1.1 cells are seeded in Poly-D-Lysine microplates and kept in a 37° C.-10% CO2 incubator overnight. On the day of the experiment, the growth media is replaced with the FluxOR™ reagent loading buffer and incubated, protected from light, at ambient temperature (23-25° C.) for 90 min. The loading buffer is replaced with assay buffer±test compound followed by 30 min incubation at ambient temperature, where the Thallium/Potassium stimulant is added to the microplate.
Step Protocol • 1. Seed HEK-hKir1.1 cells (50 μl at 20,000 cells/well) in 384-well PDL coated Microplates • 2. Allow cells to adhere overnight in humidified 37° C./10% CO2 incubator • 3. Completely remove cell growth media from microplate and replace with 25 μl loading buffer • 4. Incubate Microplate at room temperature, protected form light, for 90 min • 5. Remove loading buffer and replace with 25 μl 1× Assay Buffer±test compound. • 6. Incubate microplate at room temperature, protected from light, for 30 min • 7. […] Excitation=400 nm, Emission=460 & 580 nm. Collect data for ˜10 min.
Data Calculation—The fluorescence intensity of wells containing 3 μM of a standard control ROMK inhibitor of the present invention is used to define the ROMK-sensitive component of thallium flux. Fluorescence in the presence of test compounds is normalized to control values to provide % fluorescence change.

[3] = Chinese hamster ovary cells stably expressing Kir1.1, read-out: Electrophysiology IC50
[4] = HEK293 cells stably expressing hROMK (hKir1.1)
[5] = Electrophysiology IC50, Chinese hamster ovary cells stably expressing Kir1.1

Sequence of Kir1.1 (ROMK1) (P48048 whole entry): as above

SMILES | IC50 [1, 3] [nM] | IC50 [2, 4] [nM] | IC50 [1, 5] [nM] | IC50 [2] [nM]
Cc1c([C@H]2CN3CCN(C(=O)C4CCc5cc(-n6cnnn6)ccc54)C[C@H]3CO2)ccc2c1COC2=O (single isomer, unassigned) [Example 81] | 260 | 230 | – | –
Cc1c([C@@H]2CN3CCN(C(=O)C4CCc5cc(-n6cnnn6)ccc54)C[C@H]3CO2)csc1C#N (single isomer, unassigned) [Example 82] | 110 | 330 | – | –
Cc1c([C@@H]2CN3CCN(C(=O)C4CCc5cc(-n6cnnn6)ccc54)C[C@H]3CO2)csc1C#N (single isomer, unassigned) [Example 83] | 90 | 140 | – | –
Cc1c([C@H]2CN3CCN(C(=O)C4CCCc5cc(-n6cnnn6)ccc54)C[C@H]3CO2)ccc2c1COC2=O (single isomer, unassigned) [Example 88] | 460 | 380 | – | –
Cc1c([C@@H]2CN3CCN(C(=O)C4CCCc5cc(-n6cnnn6)ccc54)C[C@H]3CO2)ccc2c1COC2=O (single isomer, unassigned) [Example 89] | 460 | 490 | – | –
O=C1OCCc2cc([C@@H]3CN4CCN(C(=O)C5CCCc6cc(-n7cnnn7)ccc65)C[C@H]4CO3)ccc21 (single isomer, unassigned) [Example 90] | 260 | 430 | – | –
Cc1c([C@@H]2CN3CCN(C(=O)C4CCCc5cc(-n6cnnn6)ccc54)C[C@H]3CO2)csc1C#N (single isomer, unassigned) [Example 96] | 190 | 460 | – | –
Cc1c([C@H]2CN3CCN(C(=O)C4CCCc5cc(-n6cnnn6)ccc54)C[C@H]3CO2)csc1C#N (single isomer, unassigned) [Example 97] | 280 | 620 | – | –
Cc1c([C@H]2CN3CCN(C(=O)C4CCc5cc(-n6cnnn6)ccc54)C[C@H]3CO2)ccc(F)c1C#N (single isomer, unassigned) [Example 98] | 140 | 170 | – | –
Cc1c([C@@H]2CN3CCN(C(=O)Cc4ccc(-n5cnnn5)cc4)C[C@H]3CO2)ccc2c1COC2=O [Example 1A, 4-methyl-5-[(3R,9aS)-8-{[4-(1H-tetrazol-1-yl)phenyl]acetyl}octahydropyrazino[2,1-c][1,4]oxazin-3-yl]-2-benzofuran-1(3H)-one] | – | 30 | 100 | –
COc1cc(CC(=O)N2CCN3C[C@@H](c4ccc5c(c4)COC5=O)OC[C@@H]3C2)c(F)cc1C#N [Example 10, 5-fluoro-2-methoxy-4-{2-oxo-2-[(3R,9aS)-3-(1-oxo-1,3-dihydro-2-benzofuran-5-yl)hexahydropyrazino[2,1-c][1,4]oxazin-8(1H)-yl]ethyl}benzonitrile] | – | 130 | 90 | –
Cc1c([C@@H]2CN3CCN(C(=O)Cc4ccc(-n5cnnn5)cc4)C[C@@H]3CO2)ccc2c1COC2=O [Example 13, 4-methyl-5-[(3R,9aR)-8-{[4-(1H-tetrazol-1-yl)phenyl]acetyl}octahydropyrazino[2,1-c][1,4]oxazin-3-yl]-2-benzofuran-1(3H)-one] | – | 120 | 150 | –
Cc1c([C@H]2CN3CCN(C(=O)Cc4ccc(-n5cnnn5)cc4)C[C@@H]3CO2)ccc2c1COC2=O [Example 14, 4-methyl-5-[(3S,9aR)-8-{[4-(1H-tetrazol-1-yl)phenyl]acetyl}octahydropyrazino[2,1-c][1,4]oxazin-3-yl]-2-benzofuran-1(3H)-one] | – | 110 | 140 | –
O=C1OCCc2cc([C@@H]3CN4CCN(C(=O)Cc5ccc(-n6cnnn6)cc5)C[C@H]4CO3)ccc21 [Example 15, 6-[(3R,9aS)-8-{[4-(1H-tetrazol-1-yl)phenyl]acetyl}octahydropyrazino[2,1-c][1,4]oxazin-3-yl]-3,4-dihydro-1H-isochromen-1-one] | 80 | – | – | 50
COc1cc([C@H]2CN3CCN(C(=O)Cc4ccc(-n5cnnn5)cc4)C[C@@H]3CO2)ccc1C#N [Example 18, 2-methoxy-4-[(3S,9aR)-8-{[4-(1H-tetrazol-1-yl)phenyl]acetyl}octahydropyrazino[2,1-c][1,4]oxazin-3-yl]benzonitrile] | – | 250 | 110 | –
COc1cc([C@@H]2CN3CCN(C(=O)Cc4ccc(-n5cnnn5)cc4)C[C@@H]3CO2)ccc1C#N [Example 19, 2-methoxy-4-[(3R,9aR)-8-{[4-(1H-tetrazol-1-yl)phenyl]acetyl}octahydropyrazino[2,1-c][1,4]oxazin-3-yl]benzonitrile] | – | 170 | 70 | –
O=C1OCc2c1ccc([C@@H]1CN3CCN(C(=O)Cc4ccc(-n5cnnn5)cc4)C[C@H]3CO1)c2Cl [Example 20, 4-chloro-5-[(3R,9aS)-8-{[4-(1H-tetrazol-1-yl)phenyl]acetyl}octahydropyrazino[2,1-c][1,4]oxazin-3-yl]-2-benzofuran-1(3H)-one] | – | 580 | 60 | –
O=C1OCc2c1ccc([C@H]1CN3CCN(C(=O)Cc4ccc(-n5cnnn5)cc4)C[C@H]3CO1)c2Cl [Example 21, 4-chloro-5-[(3S,9aS)-8-{[4-(1H-tetrazol-1-yl)phenyl]acetyl}octahydropyrazino[2,1-c][1,4]oxazin-3-yl]-2-benzofuran-1(3H)-one] | – | 100 | 100 | –
Cc1c([C@H]2CN3CCN(C(=O)Cc4ccc5c(c4)COC5=O)C[C@H]3CO2)ccc(F)c1C#N [Example 23, 6-fluoro-2-methyl-3-{(3S,9aS)-8-[(1-oxo-1,3-dihydro-2-benzofuran-5-yl)acetyl]octahydropyrazino[2,1-c][1,4]oxazin-3-yl}benzonitrile] | – | – | 70 | 70
Cc1c([C@@H]2CN3CCN(C(=O)Cc4ccc5c(c4)COC5=O)C[C@H]3CO2)ccc(F)c1C#N [Example 24, 6-fluoro-2-methyl-3-{(3R,9aS)-8-[(1-oxo-1,3-dihydro-2-benzofuran-5-yl)acetyl]octahydropyrazino[2,1-c][1,4]oxazin-3-yl}benzonitrile] | – | – | 80 | 60
COc1ccc([C@@H]2CN3CCN(C(=O)Cc4ccc(-n5cnnn5)cc4)C[C@H]3CO2)c(F)c1C#N [Example 25, 2-fluoro-6-methoxy-3-[(3R,9aS)-8-{[4-(1H-tetrazol-1-yl)phenyl]acetyl}octahydropyrazino[2,1-c][1,4]oxazin-3-yl]benzonitrile] | 200 | 150 | – | –
COc1ccc([C@@H]2CN3CCN(C(=O)Cc4ccc(-n5cnnn5)cc4)C[C@H]3CO2)c(C)c1C#N [Example 26, 6-methoxy-2-methyl-3-[(3R,9aS)-8-{[4-(1H-tetrazol-1-yl)phenyl]acetyl}octahydropyrazino[2,1-c][1,4]oxazin-3-yl]benzonitrile] | 260 | 140 | – | –

— US9573961B2, “Inhibitors of the renal outer medullary potassium channel” (Merck Sharp & Dohme Corp., priority 2012, dated 2017)
